In PMC9475553, “SHF Acts as a Novel Tumor Suppressor in Glioblastoma Multiforme by Disrupting STAT3 Dimerization” (Advanced Science, 2022):

Key:
[1] = tested on: intracranial U87 xenograft in nude mice; experiment: Intracranial U87 xenograft tumor growth, bioluminescence; assay type: in vivo, mouse; settings: female nude mice, 10 µg i.p. once every 2 days from third day after implantation; vs SC; n = 6, p < 0.01
Source text: Considering that the SH2 domain predominantly represents the inhibition of SHF on STAT3 dimerization and activity, we speculated that this domain may be an optional target for GBM suppression. To this end, we analyzed the mechanical interaction of SHF and STAT3. The structures of human SHF (aa265‐421) and STAT3 (aa130‐715). both of which spanned their respective SH2 domain. were simulated by Swiss‐Model server (https://swissmodel.expasy.org/). To simulate the interaction of SHF and STAT3, Discovery studio 2018 was employed to complete protein‐protein docking using ZDOCK as an initial stage. A rigid body molecular docking algorithm utilizing a fast Fourier transform (FFT) algorithm was used to further improve performance for searching in translational space. […] Next, we determined the implication of C16 in tumor inhibition. […] A concentration of 25 uM was determined to be adequate for use in the subsequent experiments. […]
Figure 7 Peptide derived from the STAT3‐binding sites of SHF is an effective GBM suppressive strategy. […] B) IF staining determined the cell penetrability and nuclear‐localization of C16. […] The relative quantification of STAT3 dimerization was listed. […] The relative quantification of STAT3/DNMT1 interaction was listed. […] The relative quantification of STAT3/DNMT1 interaction was listed. […]

STAT3 dimerization = experiment: IP assay: STAT3 dimerization in 293T cells; assay type: cell-based, human; settings: transfected 293T cells incubated with C16 for 2 h
Method: Figure 7 Peptide derived from the STAT3‐binding sites of SHF is an effective GBM suppressive strategy. A) Binding model between SHF and STAT3 using ZDOCK server. […] B) IF staining determined the cell penetrability and nuclear‐localization of C16. U251 cells were incubated with C16 or SC for 2 h and performed IF staining using the indicated antibodies. Bars, 10 µm. C) The statical analysis of adsorption equilibrium assay detecting the binding of C16 and SC with recombinant STAT3. D) Pull‐down assay indicating C16 binds STAT3. GST‐STAT3 was incubated with C16 or SC for 2 h, and the pull‐down assay was performed using Anti‐His magnetic beads. E) IP assay showing the effect of C16 on STAT3 dimerization. 293T cells transfected with indicated vectors were incubated with C16 for 2 h. The relative quantification of STAT3 dimerization was listed. F) IP assay detecting the effect of C16 on the interaction of STAT3 and DNMT1. […] The relative quantification of STAT3/DNMT1 interaction was listed. […] The relative quantification of STAT3/DNMT1 interaction was listed. […] Positive cells were quantified 20 randomly selected fields per mouse (n = 6, Student's t‐test, **p < 0.01). […]
Immunoprecipitation (IP) experiments were performed to analyze the protein interactions. […] Precipitated products were analyzed by Western blot using the specified antibodies. […]

“C16: peptide spanning SHF amino acids 388–421, palmitic acid at the N-terminus, amidated C-terminus, 3× His tags added to the C-terminal (PFSSVPEIVHHYASRKLPIKGAEHMSLLYPVAIR; palmitic acid at the N-terminus; amidated C-terminus; left off: 3× His tags, C-terminal, kept)” was tested, and the “growth of intracranial tumors” value [1] was “potently inhibited the growth of intracranial tumors” and the “inhibition of STAT3 dimerization (IP)” value (STAT3 dimerization) was “effectively inhibits STAT3 dimerization”.
